Test results from patent US20230293526A1, “METHOD FOR TREATING CANCER WITH A REVERSE TRANSCRIPTASE INHIBITOR” (PrimeFour Therapeutics, Inc., priority 2020, published 2023).

Legend:
cancer cell lines = assay: Cancer cell proliferation activity of representative nucleosides, CellTiterGlo 72 h (Example 7, Tables 8 and 9); assay type: cell-based
Procedure, shortened: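 Percent viability was set against 0.1% DMSO (100%) and 10 μM staurosporine (0%), with signal from CellTiterGlo luminescence. Dose-response treatment began one day after seeding and lasted 72 h at 37° C under 5% or 10% CO2, with 0.1% final DMSO.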

human LINE-1 = assay: Human LINE-1 (L1) retrotransposition dual-luciferase reporter assay in HeLa cells; assay type: cell-based; conditions: Homo sapiens, HeLa, 72 h, read-out: Human LINE-1 IC50 (Human L1 activity inhibition)
Procedure: Representative compounds were tested for inhibition of retrotransposition activity of human LINE-1 (L1) retrotransposition reporter assay in HeLa cells according to the following procedure.
Human Cervical Adenocarcinoma Cells (HeLa) were cultured in Dulbecco's Modified Eagle's Medium (DMEM) containing 4500 mg/L glucose, L-glutamine, sodium pyruvate and sodium bicarbonate, supplemented with 10% of heat inactivated fetal bovine serum (FBS). Cells were grown at 37° C. in an atmosphere of 5% CO2. The dual luciferase-encoding plasmid pYX017 was provided by Prof Wenfeng An (Xie, et al., 2011, Nucleic Acids Res).
The reporter assay was performed in 96-well white, optical bottom plates (Thermo Fisher, 165306). 24 hours prior to transfection, HeLa cells were seeded in a density of 2,500 cells per well, in 50 μL of DMEM, 10% FBS media volume. Cells were incubated at 37° C. in an atmosphere of 5% CO2. Seeding was optimized to achieve approximately 30% cell confluency on the day of transfection. A transfection mix was prepared by combining transfection reagent FuGENE® HD (Promega, E2311) and plasmid DNA (100 ng per well) in a 3:1 ratio, in OpiMEM media (Thermo Fisher, 31985062). Next, 5 μL of the transfection mix was combined with 20 μL of DMEM, 10% FBS media, and 25 μL of this mix was added into each well of an assay plate. In each assay plate one column remained untransfected to serve as a blank luminescence signal.
Serial dilution of test compounds was performed in DMSO and transferred to medium. Next, 25 μL of media-diluted compounds series were transferred to an assay plate containing cells and transfection media. The final concentration of DMSO in treated wells was 0.2%. Serial dilutions of compounds were added to an assay plate immediately after transfection. Compounds were tested in triplicates. The assay plate was then incubated with transfection reagent and compounds at 37° C. in an atmosphere of 5% CO2 for 72 hours.
Luciferase reporter activity was quantified with the Dual-Luciferase® Reporter Assay System (Promega) following the manufacturer's manual, with a passive lysis buffer volume increased to 30 μL and lysis incubation time increased to 20 min at room temperature with gentle shaking, to ensure complete cell lysis. Luminescence was measured using a SpectraMax i3×Multi-Mode Microplate Reader, with integration times of 100 ms and 10 ms applied to measure FLuc and RLuc signals, respectively. Relative LNE-1 activity was calculated as Firefly signal/Renilla signal*10,000. In order to determine IC50 values for each compound, dose response data were fit to a logistic using non-linear regression.

C#C[C@]1(CO)O[C@@H](n2cnc3c(N)nc(F)nc32)C[C@@H]1O [Islatravir (EFdA), Islatravir, reference compound]
IC50 (cancer cell lines; 72 h, 5637, 72 h (Table 9)): 2.57 µM
IC50 (cancer cell lines; 72 h, CLS439, 72 h (Table 9)): > 50 µM
IC50 (cancer cell lines; 72 h, HS729, 72 h (Table 9)): 4.24 µM
IC50 (cancer cell lines; 72 h, J82, 72 h (Table 9)): 5.43 µM
IC50 (cancer cell lines; 72 h, JAR, 72 h (Table 9)): 5.41 µM
IC50 (cancer cell lines; 72 h, MT3, 72 h (Table 9)): 2.64 µM
IC50 (cancer cell lines; 72 h, PC3, 72 h (Table 9)): 3.12 µM
IC50 (cancer cell lines; 72 h, RD, 72 h (Table 9)): 3.3 µM
IC50 (cancer cell lines; 72 h, T24, 72 h (Table 9)): 2.68 µM
IC50 (cancer cell lines; Homo sapiens, 22Rv1, 72 h, 22RV1, 72 h (Table 9)): > 50 µM
IC50 (cancer cell lines; Homo sapiens, 786-0, 72 h, 786O, 72 h (Table 9)): 3.31 µM
IC50 (cancer cell lines; Homo sapiens, A204, 72 h, A204, 72 h (Table 9)): 1.46 µM
IC50 (cancer cell lines; Homo sapiens, A549, 72 h, A549, 72 h (Table 9)): 2.98 µM
IC50 (cancer cell lines; Homo sapiens, A673, 72 h, A673, 72 h (Table 9)): 4.57 µM
IC50 (cancer cell lines; Homo sapiens, A2780, 72 h, A2780, 72 h (Table 9)): 4.93 µM
IC50 (cancer cell lines; Homo sapiens, A-375, 72 h, A375, 72 h (Table 9)): 2.69 µM
IC50 (cancer cell lines; Homo sapiens, A-431, 72 h, A431, 72 h (Table 9)): 2.87 µM
IC50 (cancer cell lines; Homo sapiens, ACHN, 72 h, 72 h (Table 9)): 2.48 µM
IC50 (cancer cell lines; Homo sapiens, ASPC1, 72 h, ASPC1, 72 h (Table 9)): 4.97 µM
IC50 (cancer cell lines; Homo sapiens, BT-20, 72 h, BT20, 72 h (Table 9)): 2.79 µM
IC50 (cancer cell lines; Homo sapiens, BXPC-3, 72 h, BXPC3, 72 h (Table 9)): 2.77 µM
IC50 (cancer cell lines; Homo sapiens, C-33-A, 72 h, C33A, 72 h (Table 9)): 2.65 µM
IC50 (cancer cell lines; Homo sapiens, CAKI-1, 72 h, CAKI1, 72 h (Table 9)): 0.69 µM
IC50 (cancer cell lines; Homo sapiens, COLO 205, 72 h, COLO205, 72 h (Table 9)): 4.98 µM
IC50 (cancer cell lines; Homo sapiens, COLO-678, 72 h, COLO678, 72 h (Table 9)): 3.11 µM
IC50 (cancer cell lines; Homo sapiens, Ca-Ski, 72 h, CASKI, 72 h (Table 9)): 5.31 µM
IC50 (cancer cell lines; Homo sapiens, Caco-2, 72 h, CACO2, 72 h (Table 9)): > 50 µM
IC50 (cancer cell lines; Homo sapiens, Calu-6, 72 h, CALU6, 72 h (Table 9)): 5.3 µM
IC50 (cancer cell lines; Homo sapiens, DLD-1, 72 h, DLD1, 72 h (Table 9)): > 50 µM
IC50 (cancer cell lines; Homo sapiens, DU-145, 72 h, DU145, 72 h (Table 9)): 2.53 µM
IC50 (cancer cell lines; Homo sapiens, EFO-21, 72 h, EFO21, 72 h (Table 9)): 4.62 µM
IC50 (cancer cell lines; Homo sapiens, EJ-28, 72 h, EJ28, 72 h (Table 9)): 5.71 µM
IC50 (cancer cell lines; Homo sapiens, Granta-519, 72 h, GRANTA-519, 72 h (Table 9)): 1.68 µM
IC50 (cancer cell lines; Homo sapiens, HCT-15, 72 h, HCT15, 72 h (Table 9)): 5.9 µM
IC50 (cancer cell lines; Homo sapiens, HCT-116, 72 h, HCT116, 72 h (Table 9)): 4.69 µM
IC50 (cancer cell lines; Homo sapiens, HEK293, 72 h, HEK293, 72 h (Table 9)): 4.16 µM
IC50 (cancer cell lines; Homo sapiens, HL-60, 72 h, HL-60, 72 h (Table 9)): 3.49 µM
IC50 (cancer cell lines; Homo sapiens, HT-29, 72 h, HT29, 72 h (Table 9)): 4.63 µM
IC50 (cancer cell lines; Homo sapiens, HT-1080, 72 h, HT1080, 72 h (Table 9)): 3.19 µM
IC50 (cancer cell lines; Homo sapiens, HeLa, 72 h, 72 h (Table 9)): 2.98 µM
IC50 (cancer cell lines; Homo sapiens, HepG2, 72 h, HEPG2, 72 h (Table 9)): 3.14 µM
IC50 (cancer cell lines; Homo sapiens, Hs-578T, 72 h, HS578T, 72 h (Table 9)): 2.94 µM
IC50 (cancer cell lines; Homo sapiens, IGROV-1, 72 h, IGROV1, 72 h (Table 9)): 3.03 µM
IC50 (cancer cell lines; Homo sapiens, IMR-90, 72 h, IMR90, 72 h (Table 9)): 2.46 µM
IC50 (cancer cell lines; Homo sapiens, JEG-3, 72 h, JEG3, 72 h (Table 9)): 3.95 µM
IC50 (cancer cell lines; Homo sapiens, JIMT-1, 72 h, JIMT1, 72 h (Table 9)): 1.58 µM
IC50 (cancer cell lines; Homo sapiens, K562, 72 h, K-562, 72 h (Table 9)): 4.46 µM
IC50 (cancer cell lines; Homo sapiens, Kasumi 1, 72 h, KASUMI-1, 72 h (Table 9)): 0.96 µM
IC50 (cancer cell lines; Homo sapiens, L-363, 72 h, L-363, 72 h (Table 9)): 3.21 µM
IC50 (cancer cell lines; Homo sapiens, LoVo, 72 h, 72 h (Table 9)): 2.79 µM
IC50 (cancer cell lines; Homo sapiens, MCF7, 72 h, MCF7, 72 h (Table 9)): > 50 µM
IC50 (cancer cell lines; Homo sapiens, MDA-MB-231, 72 h, MDAMB231, 72 h (Table 9)): 2.56 µM
IC50 (cancer cell lines; Homo sapiens, MDA-MB-435, 72 h, MDAMB435, 72 h (Table 9)): > 50 µM
IC50 (cancer cell lines; Homo sapiens, MDA-MB-436, 72 h, MDAMB436, 72 h (Table 9)): 3.59 µM
IC50 (cancer cell lines; Homo sapiens, MDA-MB-468, 72 h, MDAMB468, 72 h (Table 9)): 4 µM
IC50 (cancer cell lines; Homo sapiens, MG-63, 72 h, MG63, 72 h (Table 9)): > 50 µM
IC50 (cancer cell lines; Homo sapiens, MHH-ES-1, 72 h, MHHES1, 72 h (Table 9)): 3.51 µM
IC50 (cancer cell lines; Homo sapiens, MIA PaCa-2, 72 h, MIAPACA2, 72 h (Table 9)): > 50 µM
IC50 (cancer cell lines; Homo sapiens, MINO, 72 h, 72 h (Table 9)): 1.34 µM
IC50 (cancer cell lines; Homo sapiens, MV4-11, 72 h, MV4-11, 72 h (Table 9)): 2.39 µM
IC50 (cancer cell lines; Homo sapiens, NCI-H23, 72 h, NCI-H23, 72 h (Table 9)): 2.96 µM
IC50 (cancer cell lines; Homo sapiens, NCI-H82, 72 h, NCIH82, 72 h (Table 9)): 2.73 µM
IC50 (cancer cell lines; Homo sapiens, NCI-H292, 72 h, NCIH292, 72 h (Table 9)): 3.68 µM
IC50 (cancer cell lines; Homo sapiens, NCI-H460, 72 h, NCIH460, 72 h (Table 9)): 3.31 µM
IC50 (cancer cell lines; Homo sapiens, OVCAR-3, 72 h, OVCAR3, 72 h (Table 9)): 4.15 µM
IC50 (cancer cell lines; Homo sapiens, OVCAR-4, 72 h, OVCAR4, 72 h (Table 9)): 3.1 µM
IC50 (cancer cell lines; Homo sapiens, PANC-1, 72 h, PANC1, 72 h (Table 9)): > 50 µM
IC50 (cancer cell lines; Homo sapiens, PLC-PRF-5, 72 h, PLCPRF5, 72 h (Table 9)): > 50 µM
IC50 (cancer cell lines; Homo sapiens, Panc1005, 72 h, PANC1005, 72 h (Table 9)): 3.87 µM
IC50 (cancer cell lines; Homo sapiens, Ramos, 72 h, 72 h (Table 9)): 1.88 µM
IC50 (cancer cell lines; Homo sapiens, SAOS-2, 72 h, SAOS2, 72 h (Table 9)): 1.65 µM
IC50 (cancer cell lines; Homo sapiens, SF-268, 72 h, SF268, 72 h (Table 9)): > 50 µM
IC50 (cancer cell lines; Homo sapiens, SF-295, 72 h, SF295, 72 h (Table 9)): 2.91 µM
IC50 (cancer cell lines; Homo sapiens, SK-BR-3, 72 h, SKBR3, 72 h (Table 9)): 1.76 µM
IC50 (cancer cell lines; Homo sapiens, SK-HEP1, 72 h, SKHEP1, 72 h (Table 9)): 2.66 µM
IC50 (cancer cell lines; Homo sapiens, SK-LMS-1, 72 h, SKLMS1, 72 h (Table 9)): 3.35 µM
IC50 (cancer cell lines; Homo sapiens, SK-MEL-5, 72 h, SKMEL5, 72 h (Table 9)): 6.02 µM
IC50 (cancer cell lines; Homo sapiens, SK-MEL-28, 72 h, SKMEL28, 72 h (Table 9)): 3.84 µM
IC50 (cancer cell lines; Homo sapiens, SK-N-AS, 72 h, SKNAS, 72 h (Table 9)): 2.98 µM
IC50 (cancer cell lines; Homo sapiens, SK-N-SH, 72 h, SKNSH, 72 h (Table 9)): 3.37 µM
IC50 (cancer cell lines; Homo sapiens, SK-OV-3, 72 h, SKOV3, 72 h (Table 9)): 3.25 µM
IC50 (cancer cell lines; Homo sapiens, SNB-75, 72 h, SNB75, 72 h (Table 9)): 3.27 µM
IC50 (cancer cell lines; Homo sapiens, SU-DHL10, 72 h, SU-DHL-10, 72 h (Table 9)): 2.6 µM
IC50 (cancer cell lines; Homo sapiens, SU-DHL-6, 72 h, SU-DHL-6, 72 h (Table 9)): 1.68 µM
IC50 (cancer cell lines; Homo sapiens, SW-620, 72 h, SW620, 72 h (Table 9)): 3.81 µM
IC50 (cancer cell lines; Homo sapiens, TE-671, 72 h, TE671, 72 h (Table 9)): > 50 µM
IC50 (cancer cell lines; Homo sapiens, THP-1, 72 h, THP-1, 72 h (Table 9)): 2.93 µM
IC50 (cancer cell lines; Homo sapiens, U2OS, 72 h, 72 h (Table 9)): 2.53 µM
IC50 (cancer cell lines; Homo sapiens, U-87 MG, 72 h, U87MG, 72 h (Table 9)): 2.75 µM
IC50 (cancer cell lines; Homo sapiens, UMUC3, 72 h, UMUC3, 72 h (Table 9)): 3.53 µM
IC50 (cancer cell lines; Homo sapiens, UO-31, 72 h, UO31, 72 h (Table 9)): 4.71 µM
IC50 (cancer cell lines; Homo sapiens, WSU-NHL, 72 h, 72 h (Table 9)): 3.17 µM
IC50 (cancer cell lines; NCI-H358M, 72 h, NCIH358M, 72 h (Table 9)): 0.73 µM
IC50 (cancer cell lines; PBMC, 72 h, 72 h (Table 9)): > 50 µM
IC50 (cancer cell lines; RD-ES, 72 h, RDES, 72 h (Table 9)): 3.01 µM
IC50 (human LINE-1): 0.0011 µM
